The results in this text go back to ChEMBL document CHEMBL3797190, “Development of 3,5-Dinitrobenzylsulfanyl-1,3,4-oxadiazoles and Thiadiazoles as Selective Antitubercular Agents Active Against Replicating and Nonreplicating Mycobacterium tuberculosis” (J Med Chem, 2016).

In data set [1] the test system is Candida tropicalis. The data set is described as follows: Antifungal activity against Candida tropicalis 156 after 24 to 48 hrs by broth microdilution method. It counts as functional.
Data set [2] deals with Mycobacterium kansasii. Briefly: Antimycobacterial activity against Mycobacterium kansasii CNCTC My 6509/96 after 14 days by microdilution method. Format: functional. The settings on record: CNCTC My 6509/96, 336 h.
Data set [3] relates to Mycobacterium avium. Briefly: Antimycobacterial activity against Mycobacterium avium CNCTC My 330/88 after 21 days by microdilution method. Format: functional. The conditions noted are these: CNCTC My 330/88, 504 h.
Data set [4] is described as follows: Cytotoxicity against human HuH7 cells assessed as cell viability after 48 hrs by MTS assay. It counts as cell-based. The conditions noted are these: Huh-7, 48 h.
Data set [5] relates to Mycobacterium kansasii. The data set is described as follows: Antimycobacterial activity against Mycobacterium kansasii CNCTC My 6509/96 after 21 days by microdilution method. Format: functional. The conditions noted are these: CNCTC My 6509/96, 504 h.
Data set [6] is described as follows: Aqueous solubility of compound in water with 0.01 to 1% DMSO at 2 to 200 uM by HPLC analysis. Format: physicochemical.
The test system of data set [7] is Trichophyton mentagrophytes. Briefly: Antifungal activity against Trichophyton mentagrophytes 445 after 72 to 120 hrs by broth microdilution method. Format: functional.
Data set [8] is described as follows: Cytotoxicity against human HuH7 cells assessed as cell viability at 20 uM after 24 hrs by MTS assay. It counts as cell-based, Huh-7. The settings on record: read-out: Activity.
Data set [9] deals with Mycobacterium tuberculosis. The data set is described as follows: Antimycobacterial activity against Mycobacterium tuberculosis CNCTC My 331/88 using 1 month stored compound at room temperature in DMSO after 14 to 21 days by microdilution method. Format: functional, organism-based.
Data set [10] has as its system HepG2. Briefly: Cytotoxicity against human HepG2 cells assessed as cell viability after 48 hrs by MTS assay. The settings on record: HepG2, 48 h. Format: cell-based.
Data set [11] has as its system Mycobacterium tuberculosis. Briefly: Antimycobacterial activity against Mycobacterium tuberculosis H37Ra assessed as growth inhibition at 1 ug/ml preincubated for 1 hr followed by radiolabeling with [14C]-uracil, [14C]-methionine for 24 hrs. It counts as functional, organism-based.
Data set [12] concerns Mycobacterium tuberculosis H37Ra. Briefly: Inhibition of DprE1 in Mycobacterium tuberculosis H37Ra assessed as accumulation of trehalose dimycolate at 0.5 ug/ml preincubated for 24 hrs followed by radiolabeling with [14C]-acetate for 24 hrs by TLC/autoradiographic method.
Data set [13] relates to Mycobacterium kansasii. The data set is described as follows: Antimycobacterial activity against Mycobacterium kansasii CNCTC My 6509/96 after 7 days by microdilution method. Format: functional. The settings on record: CNCTC My 6509/96, 168 h.
For data set [14], the system named is Mycobacterium tuberculosis. Briefly: Antimycobacterial activity against Mycobacterium tuberculosis CNCTC My 331/88 after 21 days by microdilution method. The settings on record: CNCTC My 331/88, 504 h. Format: functional.
Data set [15] deals with Candida albicans. The data set is described as follows: Antifungal activity against Candida albicans ATCC 44859 after 24 to 48 hrs by broth microdilution method. Format: functional.
The subject of data set [16] is PBL. The data set is described as follows: Genotoxicity in human PBL at 0.6 to 12 mM by micronucleus test in presence of metabolic activation. Format: toxicity, cell-based. The settings on record: 12000 µM.
Data set [17] deals with PBL. Briefly: Genotoxicity in human PBL at 0.6 to 12 mM by chromosome aberration test in presence of metabolic activation. It counts as toxicity, cell-based. The settings on record: 12000 µM.
Data set [18] can be described thus: Cytotoxicity against MDCK2-MDR1 cells assessed as cell viability after 48 hrs by MTS assay. Format: ADME, cell-based. The conditions noted are these: Canis lupus familiaris, MDCK-II.
Data set [19] can be described thus: Chemical stability of compound in DMSO under open-vessel condition at 4 mg/ml at 60 degC after 3 days by 1H-NMR analysis. Format: physicochemical. The conditions noted are these: 72 h.
For data set [20], the system named is PBL. The data set is described as follows: Genotoxicity in human PBL at 0.6 to 12 mM by chromosome aberration test in absence of metabolic activation. It counts as toxicity, cell-based. The conditions noted are these: 12000 µM.
Data set [21] concerns PBL. Briefly: Genotoxicity in human PBL at 0.6 to 12 mM by micronucleus test in absence of metabolic activation. Format: toxicity, cell-based. The settings on record: 12000 µM.

In brackets after ≈: the same amount, converted by molar mass. Activity calls are given as the source filed them. The calls are words filed in the database; no cut-off is given here.

`Cc1ccc(-c2nnc(SCc3cc([N+](=O)[O-])cc([N+](=O)[O-])c3)o2)cc1`: the MIC80 in [1] and in data set [15] was more than 125 µM each time. The MIC99 is 0.06 µM (≈ 0.0223 µg/mL) in data set [2]; 16 µM (≈ 5.96 µg/mL) in data set [3]; 0.125 µM (≈ 0.0465 µg/mL) in data set [5]; 0.06 µM (≈ 0.0223 µg/mL) in [13]; not above 0.03 µM in data set [14]. In addition, the IC50 was more than 20 µM in data set [4] and more than 50 µM in [10]. Further, the solubility (kinetic) in data set [6] came to 0.5 µM (≈ 0.186 µg/mL). The compound further gave an MIC50 in data set [7] of more than 125 µM. Moreover, the viability at 24 h, 20 µM in [8] was found to be 101%. Moreover, in [9], the result was Active. Also, the “growth inhibition (GI)” value in data set [11] was “Active”. In addition, the inhibition entry in data set [12] is “inactive”.
Take `O=[N+]([O-])c1cc(CSc2nnc(-c3ccc(Cl)cc3)s2)cc([N+](=O)[O-])c1`: the MIC80 in data set [1] and in [15] was more than 125 µM throughout. Further, the MIC99 is 0.25 µM (≈ 0.102 µg/mL) in data set [2]; 16 µM (≈ 6.54 µg/mL) in data set [3]; 0.5 µM (≈ 0.204 µg/mL) in data set [5]; 0.125 µM (≈ 0.0511 µg/mL) in [13]; 0.06 µM (≈ 0.0245 µg/mL) in data set [14]. Further, the Activity result in [16], in data set [17], in data set [20] and in data set [21] was “Non-toxic” each time. The solubility (kinetic) in data set [6] is 0.54 µM (≈ 0.221 µg/mL). The half-inhibitory concentration (IC50) in [18] is more than 20 µM; in [10] it was more than 50 µM. Moreover, the Stability result in data set [19] was “Stable”. For the same compound, in data set [7], the MIC50 is more than 125 µM. For the same compound, the viability at 24 h, 20 µM in data set [8] came to 94%. Also, the result in data set [9] was Active. Moreover, the “growth inhibition (GI)” value in data set [11] was “inactive”. Besides, in [12], the inhibition result was “inactive”.
